Source: patent US10899790B2, “Method for modifying T cell population” (OSAKA UNIVERSITY, priority 2016, dated 2021)
“Also recorded” adds a separate entry of the source.

What was measured:
[1] = system: Healthy human-derived CD4+CD45RO+T cells; assay: Effect in vitro: CD62L and CD127 expression in cultured T cells by flow cytometry; format: cell-based; settings: 20 μM; anti-CD3, anti-CD28, IL-2; vs DMSO control (FIG. 2)
Description: Healthy human-derived CD4^+CD45RO^+T cells (1×10^5) were cultured in the presence of anti-CD3 antibody (2 μg/ml), anti-CD28 antibody (2 μg/ml), IL-2 (20 IU/ml) and RDH10 inhibitors (Compound No. 16 (RDHI-032), Compound No. 17 (RDHI-033), and Compound No. 18 (RDHI-034)) (20 μM for each). In addition, DMSO was used as a control for the RDH10 inhibitor. After seven days […] resuspended in a fresh culture medium to which IL-2 was not added, and cultured for one more day. Thereafter, the expression of CD62L and CD127 in T cells was analyzed by flow cytometry. The culture solution used was X-VIVO15 to which AB serum was added to have a final concentration of 10%.

[2] = target: T1, Retinol Dehydrogenase 10 (RDH10) (Homo sapiens, UniProt Q8IZV5); assay: Inhibition of RDH10 enzyme activity (microsomal fraction of RDH10-expressed 293T, all-trans retinol to all-trans retinal, HPLC); format: biochemical; settings: final concentration of 20 μM; relative to DMSO control (FIG. 1)
T1 construct: expressed in transfected cells; host or cells: 293T (microsomal fraction)
T1 sequence (Q8IZV5 1-341): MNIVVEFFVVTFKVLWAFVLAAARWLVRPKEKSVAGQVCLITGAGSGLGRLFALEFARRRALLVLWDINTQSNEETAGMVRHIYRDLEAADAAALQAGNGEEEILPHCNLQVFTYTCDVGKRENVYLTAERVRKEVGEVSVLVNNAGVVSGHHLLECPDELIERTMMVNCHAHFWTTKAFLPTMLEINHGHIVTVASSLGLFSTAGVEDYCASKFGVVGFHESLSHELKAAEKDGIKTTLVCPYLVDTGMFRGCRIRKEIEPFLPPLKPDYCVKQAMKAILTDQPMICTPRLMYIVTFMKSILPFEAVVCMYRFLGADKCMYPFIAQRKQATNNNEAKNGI
Description: All-trans retinol, BSA, and NAD (nicotinamide adenine dinucleotide) as a coenzyme were added to a buffer for reaction (90 mM potassium phosphate buffer, pH7.4, 40 mM KCl) so as to have final concentrations of 10 μM, 10 μM, and 1 mM respectively. This mixture was taken in siliconized tubes by 200 μl for each, the microsomal fractions separated from 293T and RDH10-expressed 293T were added to separate tubes by 10 μl for each, and the mixtures were allowed to react at 37° C. for 15 minutes. After 200 μl of methanol was added to the reaction mixtures to stop the reaction, retinoid was extracted using hexane and concentrated. The concentrated retinoid was dissolved in 150 μl of acetonitrile, separated by HPLC, and subjected to the detection of ultraviolet light absorption at a wavelength of 350 nm, whereby the substrate (all-trans retinol) and the product (all-trans retinal) were detected. In addition, standard samples (all-trans retinol and all-trans retinal) were separated by HPLC and the retention times of the respective standard samples were determined in advance. The solvent for HPLC was acetonitrile: 50 mM ammonium acetate=75:25. As the separation column, Syhergi 4 μm Hydro-RP 80A (manufactured by Phenomenex) was used. In addition, the flow rate was 2.0 ml/min. The RDH10 enzyme activity was calculated by reading the amount of product per fixed time from the chart of HPLC.
All-trans retinol, BSA, and NAD (nicotinamide adenine dinucleotide) as a coenzyme were added to a buffer for reaction (90 mM potassium phosphate buffer, pH7.4, 40 mM KCl) so as to have final concentrations of 10 μM, 10 μM, and 1 mM respectively. This mixture was taken in siliconized tubes by 200 μl for each, the microsomal fraction separated from RDH10-expressed 293T was added to separate tubes by 10 μl for each. The RDH10 inhibitor dissolved in DMSO was added to each tube so as to have a final concentration of 20 μM, and the same amount of DMSO was added to the control tube. The mixture was allowed to react at 37° C. for 15 to 30 minutes, 200 μl of methanol was added to the reaction mixtures, and then retinoid was extracted using hexane and concentrated. The concentrated retinoid was dissolved in 150 μl of acetonitrile, separated by HPLC, and subjected to the detection of ultraviolet light absorption at a wavelength of 350 nm, whereby the substrate (all-trans retinol) and the product (all-trans retinal) were detected. In addition, standard samples (all-trans retinol and all-trans retinal) were separated by HPLC and the retention times of the respective standard samples were determined in advance. The solvent for HPLC was acetonitrile: 50 mM ammonium acetate=75:25. As the separation column, Syhergi 4 μm Hydro-RP 80A (manufactured by Phenomenex) was used. The flow rate was 2.0 ml/min.
The enzyme activity was determined by the waveform area of the product (all-trans retinal) with respective to the waveform area of the non-reacted substrate (all-trans retinol), and the relative value with respect to the enzyme activity in the control is illustrated in FIG. 1. The error bars indicate SD (standard deviation).

[3] = system: mouse cancer cell line EG7 expressing OVA; assay: Effect in vivo: EG7 tumor-bearing B6 mice with transferred OT-1 cells; set-up: species or system C57BL/6J mouse
Source text: A mouse cancer cell line EG7 (2×10^6) expressing OVA (chicken ovalbumin) was subcutaneously injected into C57BL/6J mouse (B6 mouse) to form a tumor. Five days later, the mouse in which a tumor was formed was irradiated with radiation at 3 Gy, then T cell-receptive OTCD8^+T cells (OT-1 cells) specific for OVA antigen were isolated from CD45.1 positive OT-I transgenic mouse, and this was transferred into the mouse by 2×10^5 through the tail vein. A total of 3 times every other day from the next day, RDH10 inhibitors (Compound No. 1 (RDHI-012) and Compound No. 2 (RDHI-013)) were administered to the mouse at 100 μg/mouse for each through the tail vein. The RDH10 inhibitors were administered to the mouse by being previously stocked in DMSO at 100 μg/50 μl and adjusted to have a total volume of 200 μl by the addition of 150 μl of PBS.
In the experiment, tumor volumes were measured over time. The frequency of OT-1 cells (OVA specific CD8^+T cells) in peripheral blood on the 20th day was measured. Furthermore, the expression intensity of cell surface antigen molecules (CD62L, CD127), which were markers of memory T cells, was analyzed.
The time course in the mean value of tumor volume after tumor transplantation is illustrated in FIG. 4. The error bars indicate the standard error. The tumor volume was determined by major axis×minor axis×height/2.
On the 20th day after the tumor transplantation, the frequency of transferred OT-I cells contained in peripheral blood was analyzed by flow cytometry. OT-I cells were CD45.1 positive and thus were clearly distinguishable from the host B6 mouse (CD45.2 positive)-derived T cells. The representative results are illustrated in FIG. 5.
The expression intensities of CD62L and CD127 in OT-I cells illustrated in FIG. 5 were analyzed by flow cytometry. The mean value and standard error of each expression intensity are illustrated in FIG. 6.

Row | SMILES | RDH10 enzyme activity inhibitory action [2] | amplification of memory T cells (CD62L+CD127+T cells) [1] | frequency of CD45.1+OT-1 cells (OVA specific CD8+ cells) in peripheral blood ([3]; 100 μg/mouse tail vein, 20th day after tumor transplantation (FIG. 5)) | expression of CD62L and CD127 in CD45.1+OT-1 cells ([3]; 100 μg/mouse tail vein, 20th day, flow cytometry (FIG. 6)) | proliferation of tumor in vivo ([3]; 100 μg/mouse through the tail vein, 3 times every other day) | tumor volume ([3]; 100 μg/mouse through the tail vein, 3 times every other day, 21st day after transplantation (FIG. 4)) | effector T cells (CD62L−CD127−T cells) [1]
1 | COC(=O)[C@@]1(C)CC[C@]2(C)CC[C@]3(C)C(=CC(=O)[C@@H]4[C@@]5(C)CCC(NC(=O)/C=C\C(=O)O)C(C)(C)[C@@H]5CC[C@]43C)[C@H]2C1 (stereo partly drawn) [Compound No. 5, (Z)-4-((4aR,6aR,6bS,8aS,11S,12aS,14aR,14bS)-11-(methoxycarbonyl)-4,4,6a,6b,8a,11,14b-heptamethyl-14-oxo-1,2,3,4,4a,5,6,6a,6b,7,8,8a,9,10,11,12,12a,14,14a,14b-icosahydropicen-3-ylamino)-4-oxobut-2-enoic acid] | relatively potent | tended to amplify memory cells | – | – | – | – | –
2 | COC(=O)[C@@]1(C)CC[C@]2(C)CC[C@]3(C)C(=CC(=O)[C@@H]4[C@@]5(C)CCC(NC(=O)N6CCOCC6)C(C)(C)[C@@H]5CC[C@]43C)[C@@H]2C1 (stereo partly drawn) [Compound No. 23, (2S,4aS,6aS,6bR,8aR,12aS,12bR,14bR)-methyl 2,4a,6a,6b,9,9,12a-heptamethyl-10-(morpholine-4-carboxamido)-13-oxo-1,2,3,4,4a,5,6,6a,6b,7,8,8a,9,10,11,12,12a,12b,13,14b-icosahydropicene-2-carboxylate] | exhibited the RDH10 enzyme activity inhibitory action | tended to amplify memory cells | – | – | – | – | –
3 | COC(=O)[C@@]1(C)CC[C@]2(C)CC[C@]3(C)C(=CC(=O)[C@@H]4[C@@]5(C)CCC(N)C(C)(C)[C@@H]5CC[C@]43C)[C@@H]2C1 (stereo partly drawn) [Compound No. 2, (2S,4aS,6aS,6bR,8aR,12aS,12bR,14bR)-methyl 10-amino-2,4a,6a,6b,9,9,12a-heptamethyl-13-oxo-1,2,3,4,4a,5,6,6a,6b,7,8,8a,9,10,11,12,12a,12b,13,14b-icosahydropicene-2-carboxylate] | relatively potent; also recorded: potent RDH10 enzyme activity inhibitory action | – | amplify CD45.1^+OT-1 cells | accelerate the expression of CD62L and CD127 | suppress the proliferation of tumor in vivo | decreased to one several tenths to one several hundredths | –
4 | COC(=O)[C@@]1(C)CC[C@]2(C)CC[C@]3(C)C(=CC(=O)[C@@H]4[C@@]5(C)CCC(NC(=O)N6CCOCC6)C(C)(C)[C@@H]5CC[C@]43C)[C@H]2C1 (stereo partly drawn) [Compound No. 22, (2S,4aS,6aS,6bR,8aR,12aS,12bR,14bS)-methyl 2,4a,6a,6b,9,9,12a-heptamethyl-10-(morpholine-4-carboxamido)-13-oxo-1,2,3,4,4a,5,6,6a,6b,7,8,8a,9,10,11,12,12a,12b,13,14b-icosahydropicene-2-carboxylate] | exhibited the RDH10 enzyme activity inhibitory action | tended to amplify memory cells | – | – | – | – | –
5 | CC1(C)C(N)CC[C@]2(C)[C@H]3C(=O)C=C4[C@@H]5C[C@@](C)(C(N)=O)CC[C@]5(C)CC[C@@]4(C)[C@]3(C)CC[C@@H]12 (stereo partly drawn) [Compound No. 16, (2S,4aS,6aS,6bR,8aR,12aS,12bR,14bR)-10-amino-2,4a,6a,6b,9,9,12a-heptamethyl-13-oxo-1,2,3,4,4a,5,6,6a,6b,7,8,8a,9,10,11,12,12a,12b,13,14b-icosahydropicene-2-carboxamide] | relatively potent | amplified memory T cells | – | – | – | – | decreased

The next lines start with results.

Row | RDH10 enzyme activity inhibitory action [2] | SMILES | amplification of memory T cells (CD62L+CD127+T cells) [1] | frequency of CD45.1+OT-1 cells (OVA specific CD8+ cells) in peripheral blood ([3]; 100 μg/mouse tail vein, 20th day after tumor transplantation (FIG. 5)) | expression of CD62L and CD127 in CD45.1+OT-1 cells ([3]; 100 μg/mouse tail vein, 20th day, flow cytometry (FIG. 6)) | proliferation of tumor in vivo ([3]; 100 μg/mouse through the tail vein, 3 times every other day) | tumor volume ([3]; 100 μg/mouse through the tail vein, 3 times every other day, 21st day after transplantation (FIG. 4)) | effector T cells (CD62L−CD127−T cells) [1]
6 | relatively potent | CC(=O)NC1CC[C@]2(C)[C@H]3C(=O)C=C4[C@@H]5C[C@@](C)(C(N)=O)CC[C@]5(C)CC[C@@]4(C)[C@]3(C)CC[C@H]2C1(C)C (stereo partly drawn) [Compound No. 17, (2S,4aS,6aS,6bR,8aR,12aS,12bR,14bR)-10-acetamido-2,4a,6a,6b,9,9,12a-heptamethyl-13-oxo-1,2,3,4,4a,5,6,6a,6b,7,8,8a,9,10,11,12,12a,12b,13,14b-icosahydropicene-2-carboxamide] | amplified memory T cells | – | – | – | – | decreased
7 | relatively potent | CC1(C)C(NC(=O)c2ccccc2)CC[C@]2(C)[C@H]3C(=O)C=C4[C@@H]5C[C@@](C)(C(N)=O)CC[C@]5(C)CC[C@@]4(C)[C@]3(C)CC[C@@H]12 (stereo partly drawn) [Compound No. 18, (2S,4aS,6aS,6bR,8aR,12aS,12bR,14bR)-10-benzamide-2,4a,6a,6b,9,9,12a-heptamethyl-13-oxo-1,2,3,4,4a,5,6,6a,6b,7,8,8a,9,10,11,12,12a,12b,13,14b-icosahydropicene-2-carboxamide] | amplified memory T cells | – | – | – | – | decreased
